# Experiments:
# [1] = target: T1, EGFR L858R/T790M/C797S (BaF3-LTC cells) (Homo sapiens, UniProt P00533, C797S/L858R/T790M); test: EGFR degradation HTRF assay, BaF3-LTC cells; type: cell-based; settings: BaF3-LTC, 16h treatment; for Dmax: maximum percentage of degradation, read-out: LTC Dmax (%); for DC50: read-out: LTC DC50
# T1 construct: expressed in transfected cells; host or cells: BaF3
# Summary of the method: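 EGFR remaining after a 16 h, 37 °C exposure (8 doses, 5-fold steps from 10 uM final, 0.2% DMSO) was quantified by HTRF antibodies in cell lysate. Percent inhibition relative to DMSO control was fitted by four-parameter logistic to give DC50; Dmax denotes maximal degradation.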
# [2] = system: EGFR Del19/T790M/C797S (BaF3-DTC cells); test: EGFR degradation HTRF assay, BaF3-DTC cells; type: cell-based; settings: 16h treatment; for DTC Dmax (%): maximum percentage of degradation; for DC50: read-out: DTC DC50
# Experimental: BaF3 WT(wild type), BaF3-LTC(L858R/T790M/C797S) and BaF3-DTC(Del19/T790M/C797S) cells are treated with compounds diluted in 0.2% DMSO cell culture medium and incubate for 16h, 37° C., 5% CO2, H1975-#36, H1975-#28, H1975-#23 and HCC827 cells are treated with compounds diluted in 0.2% DMSO cell culture medium on day 2, incubate for 16h, 37° C., 5% CO2.the final concentriation of compounds in all assay is start with 10 uM, 5-fold dilution, total 8 doses were included.
# After 16h treatment, add HTRF lysis buffer to each well; seal the plate and incubate 1 hour at room temperature on a plate shaker; Once the cells are lysed, 16 μL of cell lysate are transferred to a PE 384-well HTRF detection plate; 4 μL of pre-mixed HTRF antibodies are added to each well; Cover the plate with a plate sealer, spin 1000 rpm for 1 min, Incubate overnight at room temperature; Read on BMG PheraStar with HTRF protocol (337 nm-665 nm-620 nm).
# The inhibition (degradation) percentage of the compound was calculated by the following equation: Inhibition percentage of Compound=100-100×(Signal-low control)/(High control-low control), wherein signal=each test compound group
# High control=Cell group with added DMSO and without compound, indicating microplate readings without EGFR degradation;
# Dmax is the maximum percentage of inhibition (degradation).
# The IC50 (DC50) value of a compound can be obtained by fitting the following equation
# Y=Bottom+(TOP−Bottom)/(1+((IC50/X)^hillslope))
# Wherein, X and Y are known values, and IC50, Hillslope, Top and Bottom are the parameters obtained by fitting with software. Y is the inhibition percentage (calculated from the equation), X is the concentration of the compound; IC50 is the concentration of the compound when the 50% inhibition is reached. The smaller the IC50 value is, the stronger the inhibitory ability of the compound is. Vice versa, the higher the IC50 value is, the weaker the inhibitory ability of the compound is; Hillslope represents the slope of the fitted curve, generally around 1*; Bottom represents the minimum value of the curve obtained by data fitting, which is generally 0%±20%; Top represents the maximum value of the curve obtained by data fitting, which is generally 100%±20%. The experimental data were fitted by calculating and analyzing with Dotmatics data analysis software.
# T1 sequence (P00533 25-1210 T790M/C797S/L858R): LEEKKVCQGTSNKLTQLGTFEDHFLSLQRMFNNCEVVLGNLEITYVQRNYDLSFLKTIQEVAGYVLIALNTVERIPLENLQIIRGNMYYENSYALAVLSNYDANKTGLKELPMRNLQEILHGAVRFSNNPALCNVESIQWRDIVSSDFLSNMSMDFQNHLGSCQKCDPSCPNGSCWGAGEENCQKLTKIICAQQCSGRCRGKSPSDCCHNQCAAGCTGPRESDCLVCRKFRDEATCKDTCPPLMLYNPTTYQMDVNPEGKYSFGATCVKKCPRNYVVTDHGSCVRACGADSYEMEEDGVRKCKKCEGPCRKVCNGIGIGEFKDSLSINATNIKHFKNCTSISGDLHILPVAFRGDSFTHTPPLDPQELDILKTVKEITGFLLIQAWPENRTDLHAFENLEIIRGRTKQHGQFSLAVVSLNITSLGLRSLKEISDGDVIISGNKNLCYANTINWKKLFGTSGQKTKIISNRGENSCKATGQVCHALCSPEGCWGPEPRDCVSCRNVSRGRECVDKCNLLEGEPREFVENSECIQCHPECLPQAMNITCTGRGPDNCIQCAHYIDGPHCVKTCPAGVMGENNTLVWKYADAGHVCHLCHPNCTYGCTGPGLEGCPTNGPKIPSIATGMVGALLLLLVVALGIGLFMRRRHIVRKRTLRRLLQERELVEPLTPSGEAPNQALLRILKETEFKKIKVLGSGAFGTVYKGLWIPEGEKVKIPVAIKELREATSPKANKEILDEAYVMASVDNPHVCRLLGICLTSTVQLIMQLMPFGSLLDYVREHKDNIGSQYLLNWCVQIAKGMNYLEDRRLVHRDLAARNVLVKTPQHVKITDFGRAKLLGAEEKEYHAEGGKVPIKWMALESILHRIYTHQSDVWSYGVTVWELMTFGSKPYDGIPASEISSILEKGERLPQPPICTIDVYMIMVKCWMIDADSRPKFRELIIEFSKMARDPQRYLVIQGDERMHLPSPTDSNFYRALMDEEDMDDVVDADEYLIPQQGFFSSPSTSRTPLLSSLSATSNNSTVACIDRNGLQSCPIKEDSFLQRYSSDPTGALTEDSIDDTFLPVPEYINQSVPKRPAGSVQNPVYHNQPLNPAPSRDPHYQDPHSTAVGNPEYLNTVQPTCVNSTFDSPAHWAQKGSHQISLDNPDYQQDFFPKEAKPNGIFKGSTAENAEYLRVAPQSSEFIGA
Dmax [1] [%],DC50 [1] [nM],DC50 [2] [nM],Structure (SMILES),DTC Dmax (%) [2] [%]
93.9,4.13,1.47,"CCc1cc(Nc2ncc(Br)c(Nc3ccc4nc(C)ccc4c3P(C)(C)=O)n2)c(OC)cc1N1CCC(N2CCN(C(=O)[C@@H]3CCN(c4cc(F)c(C5CCC(=O)NC5=O)c(F)c4)C3)CC2)CC1 (stereo partly drawn) [Example 208, 3-(4-((R)-3-(4-(1-(4-((5-bromo-4-((5-(dimethylphosphoryl)-2-methylquinolin-6-yl)amino)pyrimidin-2-yl)amino)-2-ethyl-5-methoxyphenyl)piperidin-4-yl)piperazine-1-carbonyl)pyrrolidin-1-yl)-2,6-difluorophenyl)piperidine-2,6-dione]",97.62
95.5,3.92,2.1,"CCc1cc(Nc2ncc(Br)c(Nc3ccc4nc(C)ccc4c3P(C)(C)=O)n2)c(OC)cc1N1CCC(N2CCN(C(=O)[C@H]3C[C@H](Nc4cc(F)c(C5CCC(=O)NC5=O)c(F)c4)C3)CC2)CC1 (stereo partly shown) [Example 209, 3-(4-(((1r,3r)-3-(4-(1-(4-((5-bromo-4-((5-(dimethylphosphoryl)-2-methylquinolin-6-yl)amino)pyrimidin-2-yl)amino)-2-ethyl-5-methoxyphenyl)piperidin-4-yl)piperazine-1-carbonyl)cyclobutyl)amino)-2,6-difluorophenyl)piperidine-2,6-dione]",96.2
90.5,1.24,0.781,"CCc1cc(Nc2ncc(Br)c(Nc3ccc4nc(C)ccc4c3P(C)(C)=O)n2)c(OC)cc1N1CCC(N2CCN(C(=O)C3CCN(c4ccc5c(c4)n(C)c(=O)n5C4CCC(=O)NC4=O)CC3)CC2)CC1 (stereo not shown) [Example 210, 3-(5-(4-(4-(1-(4-((5-bromo-4-((5-(dimethylphosphoryl)-2-methylquinolin-6-yl)amino)pyrimidin-2-yl)amino)-2-ethyl-5-methoxyphenyl)piperidin-4-yl)piperazine-1-carbonyl)piperidin-1-yl)-3-methyl-2-oxo-2,3-dihydro-1H-benzo[d]imidazol-1-yl)piperidine-2,6-dione]",92.69
91.4,4.75,2.72,"CCc1cc(Nc2ncc(Br)c(Nc3ccc4nc(C)ccc4c3P(C)(C)=O)n2)c(OC)cc1N1CCC(N2CCN(CCc3ccc4c(cnn4C4CCC(=O)NC4=O)c3)CC2)CC1 (stereo not shown) [Example 211, 3-(5-(2-(4-(1-(4-((5-bromo-4-((5-(dimethylphosphoryl)-2-methylquinolin-6-yl)amino)pyrimidin-2-yl)amino)-2-ethyl-5-methoxyphenyl)piperidin-4-yl)piperazin-1-yl)ethyl)-1H-indazol-1-yl)piperidine-2,6-dione]",94.88
78.8,81.2,16.6,"COc1cc(N2CCC(N3CCN(CCc4ccc(C5CCC(=O)NC5=O)c(F)c4)CC3)CC2)ccc1Nc1ncc(Br)c(Nc2ccc3nccnc3c2P(C)(C)=O)n1 (stereo not shown) [Example 212, 3-(4-(2-(4-(1-(4-((5-bromo-4-((5-(dimethylphosphoryl)quinoxalin-6-yl)amino)pyrimidin-2-yl)amino)-3-methoxyphenyl)piperidin-4-yl)piperazin-1-yl)ethyl)-2-fluorophenyl)piperidine-2,6-dione]",94.28
88.6,21.1,4.71,"COc1cc(N2CCC(N3CCN(CCC4CCN(c5cc(F)c(C6CCC(=O)NC6=O)c(F)c5)CC4)CC3)CC2)ccc1Nc1ncc(Br)c(Nc2ccc3nccnc3c2P(C)(C)=O)n1 (stereo not shown) [Example 213, 3-(4-(4-(2-(4-(1-(4-((5-bromo-4-((5-(dimethylphosphoryl)quinoxalin-6-yl)amino)pyrimidin-2-yl)amino)-3-methoxyphenyl)piperidin-4-yl)piperazin-1-yl)ethyl)piperidin-1-yl)-2,6-difluorophenyl)piperidine-2,6-dione]",94.05
75,54.9,13.7,"COc1cc(N2CCC(N3CCN(CCc4ccc(C5CCC(=O)NC5=O)c(F)c4)CC3)CC2)c(C)cc1Nc1ncc(Br)c(Nc2ccc3nccnc3c2P(C)(C)=O)n1 (stereo not shown) [Example 214, 3-(4-(2-(4-(1-(4-((5-bromo-4-((5-(dimethylphosphoryl)quinoxalin-6-yl)amino)pyrimidin-2-yl)amino)-5-methoxy-2-methylphenyl)piperidin-4-yl)piperazin-1-yl)ethyl)-2-fluorophenyl)piperidine-2,6-dione]",85.16
91.4,20.5,4.91,"COc1cc(N2CCC(N3CCN(CCC4CCN(c5cc(F)c(C6CCC(=O)NC6=O)c(F)c5)CC4)CC3)CC2)c(C)cc1Nc1ncc(Br)c(Nc2ccc3nccnc3c2P(C)(C)=O)n1 (stereo not shown) [Example 215, 3-(4-(4-(2-(4-(1-(4-((5-bromo-4-((5-(dimethylphosphoryl)quinoxalin-6-yl)amino)pyrimidin-2-yl)amino)-5-methoxy-2-methylphenyl)piperidin-4-yl)piperazin-1-yl)ethyl)piperidin-1-yl)-2,6-difluorophenyl)piperidine-2,6-dione]",96.67
87.7,23.3,5.56,"COc1cc(N2CCC(N3CCN(CCC4CCN(c5cc(F)c(C6CCC(=O)NC6=O)c(F)c5)CC4)CC3=O)CC2)c(C)cc1Nc1ncc(Br)c(Nc2ccc3nccnc3c2P(C)(C)=O)n1 (stereo not shown) [Example 216, 3-(4-(4-(2-(4-(1-(4-((5-bromo-4-((5-(dimethylphosphoryl)quinoxalin-6-yl)amino)pyrimidin-2-yl)amino)-5-methoxy-2-methylphenyl)piperidin-4-yl)-3-oxopiperazin-1-yl)ethyl)piperidin-1-yl)-2,6-difluorophenyl)piperidine-2,6-dione]",93.59
89.6,86.8,29.7,"COc1cc(N2CCC(N3CCN(CCC4CCN(c5cc(F)c(C6CCC(=O)NC6=O)c(F)c5)CC4)CC3)CC2)c(C)cc1Nc1ncc(Br)c(Nc2ccc3nc(C)ccc3c2P(C)(C)=O)n1 (stereo not shown) [Example 217, 3-(4-(4-(2-(4-(1-(4-((5-bromo-4-((5-(dimethylphosphoryl)-2-methylquinolin-6-yl)amino)pyrimidin-2-yl)amino)-5-methoxy-2-methylphenyl)piperidin-4-yl)piperazin-1-yl)ethyl)piperidin-1-yl)-2,6-difluorophenyl)piperidine-2,6-dione]",90.75
87.3,9.19,2.9,"COc1cc(N2CCC(N3CCN(CCC4CCN(c5cc(F)c(C6CCC(=O)NC6=O)c(F)c5)CC4)CC3)CC2)ccc1Nc1ncc(Br)c(Nc2ccc3nc(C)ccc3c2P(C)(C)=O)n1 (stereo not shown) [Example 218, 3-(4-(4-(2-(4-(1-(4-((5-bromo-4-((5-(dimethylphosphoryl)-2-methylquinolin-6-yl)amino)pyrimidin-2-yl)amino)-3-methoxyphenyl)piperidin-4-yl)piperazin-1-yl)ethyl)piperidin-1-yl)-2,6-difluorophenyl)piperidine-2,6-dione]",97.83
82.9,31.3,8.56,"CCc1cc(Nc2ncc(Br)c(Nc3ccc4nccnc4c3P(C)(C)=O)n2)c(OC)cc1N1CCC(N2CCN(C(=O)[C@H]3CCN(c4ccc(C5CCC(=O)NC5=O)cc4)C3)CC2)CC1 (stereo partly drawn) [Example 223, 3-(4-((S)-3-(4-(1-(4-((5-bromo-4-((5-(dimethylphosphoryl)quinoxalin-6-yl)amino)pyrimidin-2-yl)amino)-2-ethyl-5-methoxyphenyl)piperidin-4-yl)piperazine-1-carbonyl)pyrrolidin-1-yl)phenyl)piperidine-2,6-dione]",86.61
81.5,37.2,8.41,"CCc1cc(Nc2ncc(Br)c(Nc3ccc4nccnc4c3P(C)(C)=O)n2)c(OC)cc1N1CCC(N2CCN(C(=O)[C@@H]3CCN(c4ccc(C5CCC(=O)NC5=O)cc4)C3)CC2)CC1 (stereo partly drawn) [Example 224, 3-(4-((R)-3-(4-(1-(4-((5-bromo-4-((5-(dimethylphosphoryl)quinoxalin-6-yl)amino)pyrimidin-2-yl)amino)-2-ethyl-5-methoxyphenyl)piperidin-4-yl)piperazine-1-carbonyl)pyrrolidin-1-yl)phenyl)piperidine-2,6-dione]",87.47

# Reference: patent US20230265116A1, “DEGRADATION OF (EGFR) BY CONJUGATION OF EGFR INHIBITORS WITH E3 LIGASE LIGAND AND METHODS OF USE” (BEIGENE, LTD., priority 2020, published 2023)
